Test results published in ChEMBL document CHEMBL3877266, “Repurposing N,N'-bis-(arylamidino)-1,4-piperazinedicarboxamidines: An unexpected class of potent inhibitors of cholinesterases” (Eur J Med Chem, 2017).

Tests used:
Cholinesterase [1] = biological target: T1, Cholinesterase (Equus caballus, UniProt P81908); assay: Non-competitive inhibition of equine serum butyrylcholinesterase in presence of varying butyrylthiocholine iodide substrate level preincubated for 20 mins followed by substrate addition measured every 1 min for 30 mins
T1 sequence (P81908 whole entry): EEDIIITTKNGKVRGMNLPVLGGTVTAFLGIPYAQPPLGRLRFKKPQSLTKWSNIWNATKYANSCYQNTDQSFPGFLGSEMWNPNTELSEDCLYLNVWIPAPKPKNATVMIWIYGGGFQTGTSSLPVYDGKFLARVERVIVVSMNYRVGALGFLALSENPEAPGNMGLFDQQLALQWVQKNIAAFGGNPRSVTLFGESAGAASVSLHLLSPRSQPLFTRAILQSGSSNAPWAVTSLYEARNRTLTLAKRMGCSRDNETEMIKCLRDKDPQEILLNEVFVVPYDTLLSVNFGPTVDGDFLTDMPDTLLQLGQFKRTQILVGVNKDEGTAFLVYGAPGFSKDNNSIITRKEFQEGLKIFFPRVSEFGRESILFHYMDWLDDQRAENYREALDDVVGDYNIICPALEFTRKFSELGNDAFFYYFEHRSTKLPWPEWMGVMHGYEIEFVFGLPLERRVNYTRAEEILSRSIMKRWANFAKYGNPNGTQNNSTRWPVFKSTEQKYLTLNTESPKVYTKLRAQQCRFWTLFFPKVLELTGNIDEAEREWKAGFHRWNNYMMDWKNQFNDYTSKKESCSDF

Acetylcholinesterase [2] = biological target: T2, Acetylcholinesterase (Electrophorus electricus, UniProt O42275); assay: Competitive inhibition of Electrophorus electricus acetylcholinesterase in presence of varying acetylthiocholine iodide substrate level preincubated for 20 mins followed by substrate addition measured every 1 min for 30 mins
T2 sequence (O42275 whole entry): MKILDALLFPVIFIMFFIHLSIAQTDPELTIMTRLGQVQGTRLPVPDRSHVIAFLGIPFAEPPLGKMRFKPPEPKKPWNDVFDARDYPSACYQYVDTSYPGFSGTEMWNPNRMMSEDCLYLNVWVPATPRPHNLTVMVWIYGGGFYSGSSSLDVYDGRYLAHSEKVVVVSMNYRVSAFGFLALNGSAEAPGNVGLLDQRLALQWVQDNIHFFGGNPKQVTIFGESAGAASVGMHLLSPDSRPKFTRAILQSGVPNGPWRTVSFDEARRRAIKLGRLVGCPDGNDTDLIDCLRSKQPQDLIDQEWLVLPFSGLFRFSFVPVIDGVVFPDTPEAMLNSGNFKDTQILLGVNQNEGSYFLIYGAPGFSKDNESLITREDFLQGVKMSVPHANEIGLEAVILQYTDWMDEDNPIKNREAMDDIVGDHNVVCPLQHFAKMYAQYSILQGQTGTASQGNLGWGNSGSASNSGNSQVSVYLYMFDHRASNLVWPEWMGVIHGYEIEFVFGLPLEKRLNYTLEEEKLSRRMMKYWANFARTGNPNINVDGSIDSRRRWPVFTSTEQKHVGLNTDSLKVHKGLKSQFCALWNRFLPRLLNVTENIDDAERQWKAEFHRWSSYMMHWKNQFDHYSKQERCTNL

Acetylcholinesterase [3] = biological target: T2, Acetylcholinesterase; assay: Non-competitive inhibition of Electrophorus electricus acetylcholinesterase in presence of varying acetylthiocholine iodide substrate level preincubated for 20 mins followed by substrate addition measured every 1 min for 30 mins
Cholinesterase [4] = biological target: T1, Cholinesterase; assay: Competitive inhibition of equine serum butyrylcholinesterase in presence of varying butyrylthiocholine iodide substrate level preincubated for 20 mins followed by substrate addition measured every 1 min for 30 mins

Structure (SMILES) | Ki (Cholinesterase [1]) | Ki (Acetylcholinesterase [2]) | Ki (Acetylcholinesterase [3]) | Ki (Cholinesterase [4])
N=C(NC(=N)N1CCN(C(=N)NC(=N)Nc2cccc(Br)c2)CC1)Nc1cccc(Br)c1 | 10.3 µM | 6.17 µM | 25.4 µM | 0.23 µM
CC(C)(C)c1ccc(NC(=N)NC(=N)N2CCN(C(=N)NC(=N)Nc3ccc(C(C)(C)C)cc3)CC2)cc1 | 4.41 µM | 1.41 µM | 21.8 µM | 0.12 µM
N=C(NC(=N)N1CCN(C(=N)NC(=N)Nc2ccccc2Cl)CC1)Nc1ccccc1Cl | 12.7 µM | 6.11 µM | 66.7 µM | 1.85 µM
N=C(NC(=N)N1CCN(C(=N)NC(=N)Nc2ccccc2Br)CC1)Nc1ccccc1Br | 12.3 µM | 4.19 µM | 40.5 µM | 1.25 µM
N=C(NC(=N)N1CCN(C(=N)NC(=N)Nc2ccc(Br)cc2)CC1)Nc1ccc(Br)cc1 | 3.84 µM | 3.43 µM | 35.5 µM | 0.61 µM
N=C(NC(=N)N1CCN(C(=N)NC(=N)Nc2ccc([N+](=O)[O-])cc2)CC1)Nc1ccc([N+](=O)[O-])cc1 | 22.9 µM | 0.52 µM | 2.96 µM | 10.8 µM
COc1cccc(NC(=N)NC(=N)N2CCN(C(=N)NC(=N)Nc3cccc(OC)c3)CC2)c1 | 54.8 µM | 10.4 µM | 45.2 µM | 3.02 µM
N=C(NC(=N)N1CCN(C(=N)NC(=N)Nc2cccc(F)c2)CC1)Nc1cccc(F)c1 | 32.9 µM | 14.9 µM | 104 µM | 1.7 µM
N=C(NC(=N)N1CCN(C(=N)NC(=N)Nc2ccc(Cl)cc2)CC1)Nc1ccc(Cl)cc1 [PICLOXYDINE] | 9.37 µM | 22 µM | 28.3 µM | 0.62 µM
COc1cc(NC(=N)NC(=N)N2CCN(C(=N)NC(=N)Nc3cc(OC)c(OC)c(OC)c3)CC2)cc(OC)c1OC |  | 7.74 µM | 41.2 µM | 9.03 µM
N=C(NC(=N)N1CCN(C(=N)NC(=N)Nc2ccccc2I)CC1)Nc1ccccc1I | 11.2 µM | 1.56 µM | > 100 µM | 1.96 µM
N=C(NC(=N)N1CCN(C(=N)NC(=N)Nc2cccc(I)c2)CC1)Nc1cccc(I)c1 | 3.04 µM | 2.79 µM | 19.9 µM | 0.21 µM
COc1ccccc1NC(=N)NC(=N)N1CCN(C(=N)NC(=N)Nc2ccccc2OC)CC1 | 34 µM | 4.34 µM | 13.7 µM | 5.2 µM
COc1ccc(NC(=N)NC(=N)N2CCN(C(=N)NC(=N)Nc3ccc(OC)cc3)CC2)cc1 | 35.1 µM | 25.6 µM | 88.9 µM | 1.78 µM
N=C(NC(=N)N1CCN(C(=N)NC(=N)Nc2ccc(I)cc2)CC1)Nc1ccc(I)cc1 | 2.74 µM | 5.08 µM | 49.1 µM | 0.31 µM
N=C(NC(=N)N1CCN(C(=N)NC(=N)Nc2ccccc2F)CC1)Nc1ccccc1F | 25.5 µM | 14.9 µM | 58.6 µM | 6.82 µM
N=C(NC(=N)N1CCN(C(=N)NC(=N)Nc2ccc(F)cc2)CC1)Nc1ccc(F)cc1 | 15.2 µM | 7.77 µM | 16.2 µM | 1.18 µM
N=C(NC(=N)N1CCN(C(=N)NC(=N)Nc2ccc(Cl)cc2Cl)CC1)Nc1ccc(Cl)cc1Cl | 7.51 µM | 9.34 µM | 75.3 µM | 0.41 µM
N=C(NC(=N)N1CCN(C(=N)NC(=N)Nc2ccccc2)CC1)Nc1ccccc1 | > 40 µM | 13.5 µM | 69.2 µM | 0.95 µM
Cc1ccc(NC(=N)NC(=N)N2CCN(C(=N)NC(=N)Nc3ccc(C)cc3)CC2)cc1 | 11.8 µM | 9.25 µM | > 100 µM | 0.45 µM
N=C(NC(=N)N1CCN(C(=N)NC(=N)Nc2cccc(Cl)c2)CC1)Nc1cccc(Cl)c1 | 12.2 µM | 4.45 µM | > 30 µM | 0.74 µM
N=C(NC(=N)N1CCN(C(=N)NC(=N)Nc2ccc(OC(F)(F)F)cc2)CC1)Nc1ccc(OC(F)(F)F)cc1 | > 20 µM | 19.8 µM | 62.2 µM | 3.34 µM
